Article PMC6114901, “An automated screening method for detecting compounds with goitrogenic activity using transgenic zebrafish embryos” (PLoS ONE, 2018)

Experiments:
in vivo = details: zebrafish, in vivo
zebrafish embryos = assay: in vivo; details: for LC10: S2 Fig, unit not given, in µM; for Slope: mortality concentration-response curve
[1] = ref chemspider (http://www.chemspider.com); cited from earlier work
[2] = 72 hpf, 77.18 µmol/L, replicate 2, 11 embryos
[3] = 72 hpf, 115.76 µmol/L, replicate 2, 9 embryos
[4] = 72 hpf, 173.64 µmol/L, replicate 2, 8 embryos
[5] = 72 hpf, 260.47 µmol/L, replicate 2, 10 embryos
[6] = 72 hpf, 390.70 µmol/L, replicate 2, 10 embryos
[7] = 120 hpf, 25 µmol/L, replicate 1, 25 embryos
[8] = 120 hpf, 50 µmol/L, replicate 1, 25 embryos
[9] = 120 hpf, 77.18 µmol/L, replicate 2, 11 embryos
[10] = 120 hpf, 100 µmol/L, replicate 1, 25 embryos
[11] = 120 hpf, 115.76 µmol/L, replicate 2, 9 embryos
[12] = 120 hpf, 173.64 µmol/L, replicate 2, 9 embryos
[13] = 120 hpf, 200 µmol/L, replicate 1, 25 embryos
[14] = 120 hpf, 260.47 µmol/L, replicate 2, 10 embryos
[15] = 120 hpf, 390.70 µmol/L, replicate 2, 10 embryos
[16] = 120 hpf, 400 µmol/L, replicate 1, 25 embryos
[17] = sheet DCA 96 hpf (head prints 72 hpf), 77.18 µmol/L, replicate 2, 10 embryos
[18] = sheet DCA 96 hpf (head prints 72 hpf), 115.76 µmol/L, replicate 2, 9 embryos
[19] = sheet DCA 96 hpf (head prints 72 hpf), 173.64 µmol/L, replicate 2, 8 embryos
[20] = sheet DCA 96 hpf (head prints 72 hpf), 260.47 µmol/L, replicate 2, 10 embryos
[21] = sheet DCA 96 hpf (head prints 72 hpf), 390.70 µmol/L, replicate 2, 10 embryos

Nc1ccc(Cl)c(Cl)c1 [3,4-DCA, 3,4-dichloroaniline]
LC50 (in vivo; LC50 (48–120 hpf), mortality, embryos exposed 48–120 hpf): 29.4 µM | LC50 (in vivo; LC50, mortality after 48 h of exposure, S2 Fig, unit inferred): 319 µM | LC50 (in vivo; LC50, mortality after 72 h of exposure, S2 Fig, unit inferred): 59.4 µM | No Surviving (zebrafish embryos; [2]): 11 | No hatched (zebrafish embryos; [2]): 9 | Sublethal effects Total Sublethal (zebrafish embryos; [2]): 9 | Sublethal effects tip (zebrafish embryos; [2]): 9 | No Surviving (zebrafish embryos; [3]): 9 | No hatched (zebrafish embryos; [3]): 7 | Sublethal effects Total Sublethal (zebrafish embryos; [3]): 7 | Sublethal effects mch (zebrafish embryos; [3]): 4 | Sublethal effects tip (zebrafish embryos; [3]): 7 | No Surviving (zebrafish embryos; [4]): 8 | No hatched (zebrafish embryos; [4]): 7 | Sublethal effects Total Sublethal (zebrafish embryos; [4]): 7 | Sublethal effects mch (zebrafish embryos; [4]): 4 | Sublethal effects tip (zebrafish embryos; [4]): 7 | No Surviving (zebrafish embryos; [5]): 10 | No hatched (zebrafish embryos; [5]): 4 | Sublethal effects EdY / EdP (zebrafish embryos; [5]): 1 | Sublethal effects Total Sublethal (zebrafish embryos; [5]): 4 | Sublethal effects mch (zebrafish embryos; [5]): 2 | Sublethal effects tip (zebrafish embryos; [5]): 4 | No Surviving (zebrafish embryos; [6]): 10 | No hatched (zebrafish embryos; [6]): 3 | Sublethal effects EdY / EdP (zebrafish embryos; [6]): 10 | Sublethal effects Total Sublethal (zebrafish embryos; [6]): 10 | Sublethal effects mch (zebrafish embryos; [6]): 3 | Sublethal effects tip (zebrafish embryos; [6]): 3 | Lethal effects k/f (zebrafish embryos; [7]): 3 | No Surviving (zebrafish embryos; [7]): 22 | Lethal effects k/f (zebrafish embryos; [8]): 21 | No Surviving (zebrafish embryos; [8]): 4 | No Surviving (zebrafish embryos; [9]): 11 | No hatched (zebrafish embryos; [9]): 8 | Sublethal effects EdY / EdP (zebrafish embryos; [9]): 8 | Sublethal effects Total Sublethal (zebrafish embryos; [9]): 8 | Sublethal effects mch (zebrafish embryos; [9]): 4 | Sublethal effects nobc (zebrafish embryos; [9]): 8 | Sublethal effects nomov (zebrafish embryos; [9]): 8 | Sublethal effects tip (zebrafish embryos; [9]): 8 | Lethal effects k/f (zebrafish embryos; [10]): 25 | No Surviving (zebrafish embryos; [10]): 0 | Lethal effects k/f (zebrafish embryos; [11]): 6 | No Surviving (zebrafish embryos; [11]): 3 | No hatched (zebrafish embryos; [11]): 8 | Sublethal effects EdY / EdP (zebrafish embryos; [11]): 2 | Sublethal effects mch (zebrafish embryos; [11]): 1 | Sublethal effects nobc (zebrafish embryos; [11]): 2 | Sublethal effects nomov (zebrafish embryos; [11]): 2 | Sublethal effects tip (zebrafish embryos; [11]): 2 | Lethal effects k/f (zebrafish embryos; [12]): 3 | Lethal effects nohb (zebrafish embryos; [12]): 3 | No Surviving (zebrafish embryos; [12]): 3 | No hatched (zebrafish embryos; [12]): 9 | Sublethal effects EdY / EdP (zebrafish embryos; [12]): 3 | Sublethal effects Ydef (zebrafish embryos; [12]): 1 | Sublethal effects mch (zebrafish embryos; [12]): 1 | Sublethal effects nobc (zebrafish embryos; [12]): 3 | Sublethal effects nomov (zebrafish embryos; [12]): 3 | Sublethal effects tip (zebrafish embryos; [12]): 3 | Lethal effects k/f (zebrafish embryos; [13]): 25 | No Surviving (zebrafish embryos; [13]): 0 | Lethal effects k/f (zebrafish embryos; [14]): 5 | Lethal effects nohb (zebrafish embryos; [14]): 5 | No Surviving (zebrafish embryos; [14]): 0 | No hatched (zebrafish embryos; [14]): 4 | Lethal effects k/f (zebrafish embryos; [15]): 8 | Lethal effects nohb (zebrafish embryos; [15]): 2 | No Surviving (zebrafish embryos; [15]): 0 | No hatched (zebrafish embryos; [15]): 4 | Lethal effects k/f (zebrafish embryos; [16]): 25 | No Surviving (zebrafish embryos; [16]): 0 | LC10 (zebrafish embryos; mortality after 48 h of exposure): 306 | LC10 (zebrafish embryos; mortality after 72 h of exposure): 14.1 | Slope (zebrafish embryos; 48 h of exposure): 55.5 | Slope (zebrafish embryos; 72 h of exposure): 1.53 | No Surviving (zebrafish embryos; [17]): 10 | No hatched (zebrafish embryos; [17]): 8 | Sublethal effects EdY / EdP (zebrafish embryos; [17]): 6 | Sublethal effects Total Sublethal (zebrafish embryos; [17]): 8 | Sublethal effects mch (zebrafish embryos; [17]): 2 | Sublethal effects tip (zebrafish embryos; [17]): 8 | No Surviving (zebrafish embryos; [18]): 9 | No hatched (zebrafish embryos; [18]): 8 | Sublethal effects Total Sublethal (zebrafish embryos; [18]): 8 | Sublethal effects mch (zebrafish embryos; [18]): 5 | Sublethal effects nomov (zebrafish embryos; [18]): 5 | Sublethal effects tip (zebrafish embryos; [18]): 8 | No Surviving (zebrafish embryos; [19]): 8 | Sublethal effects Total Sublethal (zebrafish embryos; [19]): 9 | Sublethal effects Ydef (zebrafish embryos; [19]): 1 | Sublethal effects mch (zebrafish embryos; [19]): 6 | Sublethal effects nobc (zebrafish embryos; [19]): 9 | Sublethal effects nomov (zebrafish embryos; [19]): 9 | Sublethal effects tip (zebrafish embryos; [19]): 9 | No Surviving (zebrafish embryos; [20]): 10 | No hatched (zebrafish embryos; [20]): 4 | Sublethal effects EdY / EdP (zebrafish embryos; [20]): 4 | Sublethal effects Total Sublethal (zebrafish embryos; [20]): 4 | Sublethal effects mch (zebrafish embryos; [20]): 2 | Sublethal effects nobc (zebrafish embryos; [20]): 4 | Sublethal effects nomov (zebrafish embryos; [20]): 4 | Sublethal effects tip (zebrafish embryos; [20]): 4 | Lethal effects k/f (zebrafish embryos; [21]): 1 | Lethal effects nohb (zebrafish embryos; [21]): 9 | No Surviving (zebrafish embryos; [21]): 0 | No hatched (zebrafish embryos; [21]): 4 | Log D (pH 7.4) [1]: 2.6
